Test results: patent US20120165304A1, “6,7,8,9-Tetrahydro-5H-1,4,7,10a-tetraaza-cyclohept[f]indene derivatives, pharmaceutical compositions containing these compounds, their use and processes for preparing them” (BOEHRINGER INGELHEIM INTERNATIONAL GMBH, priority 2008, published 2012)

Target: human 5-HT2C receptor (Homo sapiens, UniProt P28335, I156V/I160V/N158S)
Assay: cell-based

Chain of human 5-HT2C receptor (P28335 33-458 I156V/N158S/I160V limits assumed): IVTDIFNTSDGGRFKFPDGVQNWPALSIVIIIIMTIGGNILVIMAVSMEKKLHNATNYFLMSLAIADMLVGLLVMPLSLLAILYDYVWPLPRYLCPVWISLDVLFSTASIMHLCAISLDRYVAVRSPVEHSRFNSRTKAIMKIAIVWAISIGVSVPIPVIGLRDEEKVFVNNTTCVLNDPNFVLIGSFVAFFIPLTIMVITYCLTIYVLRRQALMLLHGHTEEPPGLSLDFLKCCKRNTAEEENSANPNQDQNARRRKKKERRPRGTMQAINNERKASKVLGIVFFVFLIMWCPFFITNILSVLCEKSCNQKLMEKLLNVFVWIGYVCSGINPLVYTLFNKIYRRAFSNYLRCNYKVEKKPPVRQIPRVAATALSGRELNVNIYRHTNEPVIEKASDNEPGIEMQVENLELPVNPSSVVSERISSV

First: CC1(C)CCN(C(=O)C2CN(c3c4c(nc5c(Br)cnn35)CCNCC4)C2)CC1 [Example 31.138]
Second: Cc1cnn2c(N3CC(C(=O)N4CCC5(CCCC5)C4)C3)c3c(nc12)CCNCC3 [Example 31.248]
The EC50 of the first is 2.8-fold higher: 71 nM for the first, 25 nM for the second. The second is the more potent here.

First: c1cc2nc3c(c(N4CCCOCC4)n2n1)CCNCC3 [Example 1, 10-[1,4]Oxazepan-4-yl-6,7,8,9-tetrahydro-5H-1,4,7,10a-tetraaza-cyclohepta[f]indene]
Second: c1cc2nc3c(c(N4CCC4)n2n1)CCNCC3 [Example 7.4]
The EC50 of the first is 180-fold higher: 908 nM for the first, 5 nM for the second.

Compared with O=C(C1CN(c2c3c(nc4ccnn24)CCNCC3)C1)N1CCC(c2cc(Cl)cc(Cl)c2)CC1 [Example 31.214], Cc1cccc(C2CCN(C(=O)C3CN(c4c5c(nc6ccnn46)CCNCC5)C3)CC2)c1 [Example 31.167] is 4.7-fold lower in EC50: 471 nM for the first, 101 nM for the second. The second is the more potent here.

Compared with CN(CCc1cccc(Cl)c1)C(=O)C1CN(c2c3c(nc4ccnn24)CCNCC3)C1 [Example 31.59], CN(Cc1cccc(Cl)c1)C(=O)C1CN(c2c3c(nc4ccnn24)CCNCC3)C1 [Example 31.39] is 3.3-fold lower in EC50: 147 nM for the first, 44 nM for the second.

Compared with c1cc2nc3c(c(N4CCCCC4)n2n1)CCNCC3 [Example 7.2], O=C(NC1CCC1)C1CN(c2c3c(nc4ccnn24)CCNCC3)C1 [Example 37.92] is 28-fold lower in EC50: 4560 nM for the first, 161 nM for the second. The second is the more potent here.

First: O=C(C1CN(c2c3c(nc4ccnn24)CCNCC3)C1)N1CCc2ccccc2CC1 [Example 31.33]
Second: O=C(C1CN(c2c3c(nc4ccnn24)CCNCC3)C1)N1CCc2cccc(Br)c2C1 [Example 31.207]
The EC50 of the first is 4.6-fold higher: 196 nM for the first, 43 nM for the second. The second is the more potent here.

O=C(C1CN(c2c3c(nc4ccnn24)CCNCC3)C1)N1CCc2ccc(C(F)(F)F)cc2C1 [Example 31.107] and O=C(C1CN(c2c3c(nc4ccnn24)CCNCC3)C1)N1CCc2sccc2C1 [Example 31.36] are within 1.5-fold of each other in EC50: 52 nM for the first, 57 nM for the second.

First: Cn1c(C2CN(c3c4c(nc5ccnn35)CCNCC4)C2)nc2cc(C#N)ccc21 [Example 34.18]
Second: Cn1c(C2CN(c3c4c(nc5ccnn35)CCNCC4)C2)nc2ccccc21 [Example 34.1]
The EC50 of the first is 7.3-fold higher: 388 nM for the first, 53 nM for the second.

Going from CNC1CCN(C(=O)C2CN(c3c4c(nc5ccnn35)CCNCC4)C2)CC1 [Example 37.14] to CC(=O)NC1CCN(C(=O)C2CN(c3c4c(nc5ccnn35)CCNCC4)C2)CC1 [Example 37.29], the EC50 rises from 1 nM to 10 nM (10-fold). The first is the more potent here.

Going from Fc1ccc(Cl)c(OCC2CN(c3c4c(nc5ccnn35)CCNCC4)C2)c1 [Example 15.15] to Fc1cccc(OCC2CN(c3c4c(nc5ccnn35)CCNCC4)C2)c1 [Example 15.19], the EC50 rises from 2 nM to 21 nM (10-fold).

Going from O=C(C1CN(c2c3c(nc4ccnn24)CCNCC3)C1)N1CC[C@@H](c2ccccc2)C1 [Example 31.223] to O=C(C1CN(c2c3c(nc4ccnn24)CCNCC3)C1)N1CCC(c2cccc(F)c2)C1 (centres unmarked) [Example 31.118], the EC50 falls from 39 nM to 11 nM (3.5-fold).

Going from FC(F)(F)c1cnc(OC2CN(c3c4c(nc5ccnn35)CCNCC4)C2)c(Cl)c1 [Example 20.7] to Fc1ccc(C(F)(F)F)cc1OC1CN(c2c3c(nc4ccnn24)CCNCC3)C1 [Example 35.36], the EC50 falls from 424 nM to 90 nM (4.7-fold). The second is the more potent here.

Compared with c1ccc(COC2CN(c3c4c(nc5ccnn35)CCNCC4)C2)nc1 [Example 20.15], c1csc(COC2CN(c3c4c(nc5ccnn35)CCNCC4)C2)n1 [Example 20.14] is 7.8-fold lower in EC50: 180 nM for the first, 23 nM for the second. The second is the more potent here.

First: O=C(C1CN(c2c3c(nc4ccnn24)CCNCC3)C1)N1CCN2CCCC2C1 (centres unmarked) [Example 37.9]
Second: O=C(C1CN(c2c3c(nc4ccnn24)CCNCC3)C1)N1CC[C@H](F)C1 [Example 31.202]
The EC50 of the first is 54-fold lower: 3 nM for the first, 162 nM for the second. The first is the more potent here.

Going from CC1(C(=O)N2CCC3(CCOC3)CC2)CN(c2c3c(nc4ccnn24)CCNCC3)C1 [Example 32.4] to O=C(C1CN(c2c3c(nc4ccnn24)CCNCC3)C1)N1CCC2(CCCC2)CC1 [Example 31.41], the EC50 falls from 4270 nM to 58 nM (74-fold).

O=C(C1CN(c2c3c(nc4ccnn24)CCNCC3)C1)N1CCN(c2ccc(F)cc2)CC1 [Example 37.8] and CC(=O)N1CCN(C(=O)C2CN(c3c4c(nc5ccnn35)CCNCC4)C2)CC1 [Example 37.36] are within 1.5-fold of each other in EC50: 8 nM for the first, 10 nM for the second.

Going from CCc1cnn2c(N3CC(C(=O)N(C)C)C3)c3c(nc12)CCNCC3 [Example 26, 1-(3-Ethyl-6,7,8,9-tetrahydro-5H-1,4,7,10a-tetraaza-cyclohepta[f]inden-10-yl)-azetidine-3-carboxylic acid dimethylamide] to Cc1ccc(CN(C)C(=O)C2CN(c3c4c(nc5ccnn35)CCNCC4)C2)s1 [Example 31.24], the EC50 rises from 10 nM to 53 nM (5.3-fold). The first is the more potent here.

First: CN(Cc1ccc(C#N)cc1)C(=O)C1CN(c2c3c(nc4ccnn24)CCNCC3)C1 [Example 31.2]
Second: CN(Cc1ccc(C(F)(F)F)cc1)C(=O)C1CN(c2c3c(nc4ccnn24)CCNCC3)C1 [Example 31.87]
The EC50 of the first is 2.6-fold lower: 14 nM for the first, 36 nM for the second.

Compared with O=C1CN(C(=O)C2CN(c3c4c(nc5ccnn35)CCNCC4)C2)CCN1 [Example 37.12], CC1CC(C)CN(C(=O)C2CN(c3c4c(nc5ccnn35)CCNCC4)C2)C1 (centres unmarked) [Example 31.22] is 3.1-fold higher in EC50: 27 nM for the first, 85 nM for the second.

First: CN(C(=O)C1CN(c2c3c(nc4ccnn24)CCNCC3)C1)C1CCCC1 [Example 31.12]
Second: O=C(NCC1CCCC1)C1CN(c2c3c(nc4ccnn24)CCNCC3)C1 [Example 37.103]
The EC50 of the first is 12-fold higher: 820 nM for the first, 68 nM for the second. The second is the more potent here.

Compared with Cc1ccc2c(c1)CCN2C(=O)C1CN(c2c3c(nc4ccnn24)CCNCC3)C1 [Example 31.156], COc1ccc2c(c1)CCN2C(=O)C1CN(c2c3c(nc4c(C)cnn24)CCNCC3)C1 [Example 31.247] is 4.8-fold lower in EC50: 135 nM for the first, 28 nM for the second.

Compared with CN1CCc2nc3ccnn3c(N3CC(C(=O)N4CCC5(CC5)C4)C3)c2CC1 [Example 36.37], O=C(C1CN(c2c3c(nc4ccnn24)CCNCC3)C1)N1CCC(F)(F)C1 [Example 31.148] is 3.2-fold lower in EC50: 61 nM for the first, 19 nM for the second.

Compared with C=CCC1CN(C(=O)C2CN(c3c4c(nc5ccnn35)CCNCC4)C2)Cc2ccccc21 (centres unmarked) [Example 31.88], O=C(C1CN(c2c3c(nc4ccnn24)CCNCC3)C1)N1CCCC(c2ccccc2F)C1 (centres unmarked) [Example 31.117] is 4.1-fold higher in EC50: 71 nM for the first, 291 nM for the second.

First: COC[C@@H]1CCCN1c1c2c(nc3ccnn13)CCNCC2 [Example 1.11]
Second: COC[C@H]1CCN1c1c2c(nc3ccnn13)CCNCC2 [Example 8.1]
The EC50 of the first is 6.7-fold higher: 504 nM for the first, 75 nM for the second.

Going from CN1CCc2nc3ccnn3c(N3CC(C(=O)NC4CC5CCC(C4)N5C)C3)c2CC1 (centres unmarked) [Example 36.10] to CN1CCc2nc3ccnn3c(N3CC(C(=O)NC4CCCC(C(F)(F)F)C4)C3)c2CC1 (centres unmarked) [Example 36.45], the EC50 falls from 374 nM to 87 nM (4.3-fold).

Going from Clc1ccccc1OC1CCN(c2c3c(nc4ccnn24)CCNCC3)CC1 [Example 1.55] to Brc1ccccc1OC1CN(c2c3c(nc4ccnn24)CCNCC3)C1 [Example 35.7], the EC50 falls from 2780 nM to 67 nM (41-fold). The second is the more potent here.

Going from Cc1cnn2c(N3CC(C(=O)N4CCC(C(F)(F)F)CC4)C3)c3c(nc12)CCNCC3 [Example 31.237] to O=C(NC1CCCCC1C(F)(F)F)C1CN(c2c3c(nc4ccnn24)CCNCC3)C1 (centres unmarked) [Example 37.58], the EC50 rises from 11 nM to 224 nM (20-fold).

COc1ccc(CC2CN(c3c4c(nc5ccnn35)CCNCC4)C2)cc1 [Example 18.1] and COc1ccc(OC2CN(c3c4c(nc5ccnn35)CCNCC4)C2)cc1 [Example 1.10] are within 1.5-fold of each other in EC50: 119 nM for the first, 96 nM for the second.

CC#CCNC(=O)C1CN(c2c3c(nc4ccnn24)CCNCC3)C1 [Example 37.105] and CC(C)C(C)NC(=O)C1CN(c2c3c(nc4ccnn24)CCNCC3)C1 (centres unmarked) [Example 37.77] are within 1.5-fold of each other in EC50: 139 nM for the first, 95 nM for the second.

Going from c1cnn(CC2CN(c3c4c(nc5ccnn35)CCNCC4)C2)c1 [Example 17, 10-(3-Pyrazol-1-ylmethyl-azetidin-1-yl)-6,7,8,9-tetrahydro-5H-1,4,7,10a-tetraaza-cyclohepta[f]indene] to CC(C)COC1CN(c2c3c(nc4ccnn24)CCNCC3)C1 [Example 20.1], the EC50 rises from 15 nM to 359 nM (24-fold).

Going from CN1CCc2nc3ccnn3c(N3CC(C(=O)NCCCN4CC[C@@H](F)C4)C3)c2CC1 [Example 36.32] to CN1CCc2nc3ccnn3c(N3CC(C(=O)NCCC4CCCC4)C3)c2CC1 [Example 36.46], the EC50 falls from 288 nM to 143 nM (2-fold). The second is the more potent here.

Compared with COc1ccc2cc(OC3CN(c4c5c(nc6ccnn46)CCNCC5)C3)ccc2c1 [Example 35.13], Clc1ccc(OC2CN(c3c4c(nc5ccnn35)CCNCC4)C2)cc1 [Example 35, 10-[3-(4-Chloro-phenoxy)-azetidin-1-yl]-6,7,8,9-tetrahydro-5H-1,4,7,10a-tetraaza-cyclohepta[f]indene] is 9.6-fold lower in EC50: 1360 nM for the first, 141 nM for the second. The second is the more potent here.

First: O=C(C1CN(c2c3c(nc4ccnn24)CCNCC3)C1)N1CCCC1c1ccccc1 (centres unmarked) [Example 31.45]
Second: O=C(C1CN(c2c3c(nc4ccnn24)CCNCC3)C1)N1CCCC1c1nccs1 (centres unmarked) [Example 31.52]
The EC50 of the first is 2.9-fold higher: 575 nM for the first, 199 nM for the second. The second is the more potent here.

First: CC(=O)N1CCCN(C(=O)C2CN(c3c4c(nc5ccnn35)CCNCC4)C2)CC1 [Example 37.102]
Second: C[C@@H]1CN(C(=O)C2CN(c3c4c(nc5ccnn35)CCNCC4)C2)C[C@H](C)O1 [Example 31.42]
The EC50 of the first is 1.8-fold higher: 67 nM for the first, 37 nM for the second. The second is the more potent here.

CN1CCc2nc3ccnn3c(N3CC(C(=O)NCC4CCN(C)CC4)C3)c2CC1 [Example 36.3] and C[C@@H](NC(=O)C1CN(c2c3c(nc4ccnn24)CCNCC3)C1)C1CCCCC1 [Example 31.188] are within 1.5-fold of each other in EC50: 108 nM for the first, 101 nM for the second.

Compared with CC1CNCCc2c1nc1ccnn1c2N1CC(C(=O)N2CCC(C)(C)C2)C1 (centres unmarked) [Example 42, (3,3-Dimethyl-pyrrolidin-1-yl)-[1-(5-methyl-6,7,8,9-tetrahydro-5H-1,4,7,10a-tetraaza-cyclohept[f]inden-10-yl)-azetidin-3-yl]-methanone], O=C(C1CN(c2c3c(nc4ccnn24)CCNCC3)C1)N1CCC(O)(c2ccc(C(F)(F)F)cc2)CC1 [Example 31.227] is 3-fold higher in EC50: 31 nM for the first, 92 nM for the second. The first is the more potent here.

Compared with O=C(C1CN(c2c3c(nc4ccnn24)CCNCC3)C1)N1CCC(OCc2ccccc2)CC1 [Example 31.199], COc1ccccc1CN(C)C(=O)C1CN(c2c3c(nc4ccnn24)CCNCC3)C1 [Example 31.51] is 1.8-fold higher in EC50: 48 nM for the first, 85 nM for the second.

Going from N#Cc1cccc(OC2CN(c3c4c(nc5ccnn35)CCNCC4)C2)c1 [Example 35.4] to Cc1ccc(OC2CN(c3c4c(nc5ccnn35)CCNCC4)C2)c(C)c1 [Example 35.6], the EC50 rises from 81 nM to 266 nM (3.3-fold).

For FC(F)(F)c1cccc(N2CCN(c3c4c(nc5ccnn35)CCNCC4)CC2)c1 [Example 7.3], the EC50 was 484 nM.
